In patent US20040259079A1, “Substantially complete ribozyme libraries” (priority 1998, published 2004):
Like-named read-outs stand apart in the source and are kept apart here.

Columns and labels:
Format in all cases: cell-based
HIV = HIV challenge of stable Molt4/8 cell lines, P24 production (SAVA); settings: for % inhibition of HIV replication: Table 19, U5 ribozyme from RNA polymerase III promoters, P24 at 7 days, vs ALNL-6 control
Method: Promoter efficacy was measured by using them to express a ribozyme against the US region of HIV and measuring the resulting anti-HIV effect for each promoter. […] The HIV protease inhibitor, indinavir, was included in these experiments as a positive control at 10 and 100 nM concentrations.

[1] = test system: 5′TK cells (HeLa with HCV IRES-tk reporter); test: Gancyclovir sensitivity of 5′TK reporter cells, surviving colonies; set-up: key to number of surviving cell colonies: TMTC = too many colonies to count
From the text: For gene identification, this reporter is stably transfected into HeLa cells (where HCV IRES activity has already been documented using hygromycin selection (FIG. 23). This “parental” cell population is called 5′TK.
Expression of the tk gene in these cells via the IRES confers sensitivity to the toxic effects of gancyclovir. Introduction of a ribozyme that inhibits expression of a cellular factor involved in IRES translation would result in a loss of tk expression and this cell would become gancyclovir resistant (see FIG. 23). As a control, a similar reporter plasmid was constructed without the IRES (or with a non-functioning mutant IRES), to verify that tk expression is IRES-dependent. To facilitate selection of the correct ribozyme from the library, it was necessary to start with a concentration of gancyclovir that effectively kills all parental cells, thus assuring a low background of false positives. To this end, 7.5×10^5 5′TK cells were exposed to various concentrations of gancyclovir and the number of surviving cell colonies is shown below. Due to anticipated heterogeneity in the original parental population, individual cell clones of the parental were also isolated and gancyclovir sensitivity was assayed as shown below in Table 12.

[2] = test system: 2008 cell line (ovarian cell line sensitive to cisplatin); test: Cisplatin selection of vector or library transfected cells, surviving colonies
Method: Approximately 2×10^7 of the 2008 cell line (ovarian cell line sensitive to cisplatin) and UMscc10b were transfected by 200 μg of pAAV6Clib described in Example 2(A) using lipofectamine. The transfection efficiencies were from 27% to 35% by eGFP expression.
After transfection, about 5.4×10^6 to 7×10^6 of cells (1.5 to 1.9 of library equivalent ) containing library DNA were selected by multiple rounds of addition of cisplatin at increasing concentrations. […] Colonies derived from the library transfected cells growing out of high concentration of cisplatin were expanded.
To confirm the library transfected cells after selection are indeed more resistant to cisplatin than either the vector transfected or parental 2008 cells, we compared the killing curve of the cisplatin of there three cell population. […] Ribozyme sequences were rescued from the library transfected cells which were selected at high concentration were rescued by PCR by the method described in Example D and identified by sequencing. After confirming the function of ribozymes rescued from the resistant cells, we will identify genes controlling cisplatin sensitivity again based on the sequence of the ribozyme binding arms and GUC by the methods described in the next example.

A549 and HeLa cells = test: Puromycin selection of transiently transfected cells; settings: cells receiving puromycin resistance genes (pPur); 600ng/ml puromycin
Method: Drug selection is typically used to obtain cells which stably express the drug resistance gene; however, we have found conditions under which cells transfected with puromycin-expressing vectors can survive for several days in the presence of puromycin, even when not stably transfected or transduced. During the same time period, untransfected cells are rapidly killed by the drug. Plasmids encoding puromycin resistance genes (pPur) were transfected into A549 and HeLa cells, and 600ng/ml puromycin was added to the culture medium. As a control, cells were transfected with plasmids lacking puromycin resistance genes (AMFT). The number of cells was determined at 1-day intervals following transfection. Cells lacking the puromycin resistance gene were killed within 2 or 3 days after the addition of puromycin, whereas cells receiving puromycin resistance genes survived as long as 7-9 days (FIG. 27). Target validation could therefore be performed on these transiently transfected cells between 2-9 days following puromycin selection. Other drugs which rapidly kill cells can also be employed in this type of experiment.

melanoma cell line G-361 = test: TRAIL killing of G-361 cells; settings: 200 ng/ml TRAIL; 2 days after adding; most efficient condition
Method: Selection of ribozymes (from the Rz library) capable of blocking TRAIL-induced apoptosis was investigated in the melanoma cell line G-361 (ATCC #CRL-1424). To determine their initial sensitivity to TRAIL, G-361 cells were plated at a density of 1×10^4 cells/cm^2. Recombinant TRAIL (Alexis Biochemicals) was applied at concentrations between 10 and 200 ng/ml for anywhere from 16 hours to 2 days.

## Serine
HIV; MOI 0.02
  % inhibition of HIV replication: 96.6%
HIV; MOI 0.04
  % inhibition of HIV replication: 91.8%
HIV; MOI 0.08
  % inhibition of HIV replication: 82.0%

## Nc1nc(O)c2ncn(COC(CO)CO)c2n1 [Gancyclovir, gancyclovir]
[1]; Clone 1, gancyclovir 20 μM
  number of surviving cell colonies: 20
[1]; Clone 1, gancyclovir 40 μM
  number of surviving cell colonies: 4
[1]; Clone 1, gancyclovir 80 μM
  number of surviving cell colonies: 0
[1]; Clone 2, gancyclovir 20 μM
  number of surviving cell colonies: 0
[1]; Clone 2, gancyclovir 40 μM
  number of surviving cell colonies: 0
[1]; Clone 2, gancyclovir 80 μM
  number of surviving cell colonies: 0
[1]; Clone 3, gancyclovir 20 μM
  number of surviving cell colonies: 0
[1]; Clone 3, gancyclovir 40 μM
  number of surviving cell colonies: 0
[1]; Clone 3, gancyclovir 80 μM
  number of surviving cell colonies: 0
[1]; Clone 4, gancyclovir 20 μM
  number of surviving cell colonies: TMTC
[1]; Clone 4, gancyclovir 40 μM
  number of surviving cell colonies: TMTC
[1]; Clone 4, gancyclovir 80 μM
  number of surviving cell colonies: 60
[1]; Clone 5, gancyclovir 20 μM
  number of surviving cell colonies: 0
[1]; Clone 5, gancyclovir 40 μM
  number of surviving cell colonies: 0
[1]; Clone 5, gancyclovir 80 μM
  number of surviving cell colonies: 0
[1]; Parental 5′TK, gancyclovir 4 μM, 7.5×10^5 cells exposed
  number of surviving cell colonies: 109
[1]; Parental 5′TK, gancyclovir 8 μM
  number of surviving cell colonies: 38
[1]; Parental 5′TK, gancyclovir 12 μM
  number of surviving cell colonies: 17
[1]; Parental 5′TK, gancyclovir 16 μM
  number of surviving cell colonies: 15
[1]; Parental 5′TK, gancyclovir 20 μM
  number of surviving cell colonies: 9
[1]; Parental 5′TK, gancyclovir 40 μM
  number of surviving cell colonies: 7
[1]; Parental 5′TK, gancyclovir 60 μM
  number of surviving cell colonies: 2
[1]; Parental 5′TK, gancyclovir 80 μM
  number of surviving cell colonies: 2
[1]; Parental 5′TK, gancyclovir 100 μM
  number of surviving cell colonies: 1
[1]; individual clones #2, 3 and 5, as low as 20 μM
  sensitivity to gancyclovir (in words): highly sensitive

## CC(C)(C)NC(=O)[C@@H]1CN(Cc2cccnc2)CCN1C[C@@H](O)C[C@@H](Cc1ccccc1)C(=O)N[C@H]1c2ccccc2C[C@H]1O [indinavir]
HIV; Human immunodeficiency virus 1, MOLT-4, Table 19, positive control at 10 nM, MOI 0.02, read-out: % inhibition of HIV replication
  inhibition at 0.01 µM: 94.7 ± 2.8%
HIV; Human immunodeficiency virus 1, MOLT-4, Table 19, positive control at 10 nM, MOI 0.04, read-out: % inhibition of HIV replication
  inhibition at 0.01 µM: 85.7 ± 4%
HIV; Human immunodeficiency virus 1, MOLT-4, Table 19, positive control at 10 nM, MOI 0.08, read-out: % inhibition of HIV replication
  inhibition at 0.01 µM: 61.6 ± 9.5%
HIV; Human immunodeficiency virus 1, MOLT-4, Table 19, positive control at 100 nM, MOI 0.02, read-out: % inhibition of HIV replication
  inhibition at 0.1 µM: 97.8 ± 1.7%
HIV; Human immunodeficiency virus 1, MOLT-4, Table 19, positive control at 100 nM, MOI 0.04, read-out: % inhibition of HIV replication
  inhibition at 0.1 µM: 95.9 ± 0.2%
HIV; Human immunodeficiency virus 1, MOLT-4, Table 19, positive control at 100 nM, MOI 0.08, read-out: % inhibition of HIV replication
  inhibition at 0.1 µM: 89.5 ± 1.2%
HIV; Human immunodeficiency virus 1, MOLT-4, Table 20, positive control at 10 nM, MOI 0.02, read-out: % inhibition (anti-HIV effect)
  inhibition at 0.01 µM: 81.3 ± 1.2%
HIV; Human immunodeficiency virus 1, MOLT-4, Table 20, positive control at 10 nM, MOI 0.04, read-out: % inhibition (anti-HIV effect)
  inhibition at 0.01 µM: 70.9 ± 2.1%
HIV; Human immunodeficiency virus 1, MOLT-4, Table 20, positive control at 10 nM, MOI 0.08, read-out: % inhibition (anti-HIV effect)
  inhibition at 0.01 µM: 57.8 ± 4.8%
HIV; Human immunodeficiency virus 1, MOLT-4, Table 20, positive control at 100 nM, MOI 0.02, read-out: % inhibition (anti-HIV effect)
  inhibition at 0.1 µM: 89.1 ± 0.5%
HIV; Human immunodeficiency virus 1, MOLT-4, Table 20, positive control at 100 nM, MOI 0.04, read-out: % inhibition (anti-HIV effect)
  inhibition at 0.1 µM: 86.1 ± 1.9%
HIV; Human immunodeficiency virus 1, MOLT-4, Table 20, positive control at 100 nM, MOI 0.08, read-out: % inhibition (anti-HIV effect)
  inhibition at 0.1 µM: 82 ± 1.2%
HIV; Human immunodeficiency virus 1, MOLT-4, Table 22, 10 nM, MOI 0.02, read-out: % inhibition
  inhibition at 0.01 µM: 74.8 ± 1.5%
HIV; Human immunodeficiency virus 1, MOLT-4, Table 22, 10 nM, MOI 0.04, read-out: % inhibition
  inhibition at 0.01 µM: 73.9 ± 3.6%
HIV; Human immunodeficiency virus 1, MOLT-4, Table 22, 10 nM, MOI 0.08, read-out: % inhibition
  inhibition at 0.01 µM: 68.8 ± 4.5%
HIV; Human immunodeficiency virus 1, MOLT-4, Table 22, 100 nM, MOI 0.02, read-out: % inhibition
  inhibition at 0.1 µM: 98.5 ± 0.5%
HIV; Human immunodeficiency virus 1, MOLT-4, Table 22, 100 nM, MOI 0.04, read-out: % inhibition
  inhibition at 0.1 µM: 95.5 ± 0.6%
HIV; Human immunodeficiency virus 1, MOLT-4, Table 22, 100 nM, MOI 0.08, read-out: % inhibition
  inhibition at 0.1 µM: 93.3 ± 0.4%

## N.N.[Cl][Pt][Cl] [cisplatin]
[2]; Library transfected cells (pAAV6Clib), cisplatin 4 uM, after multiple rounds of selection
  % of surviving colonies: 18.4%
[2]; Library transfected cells, cisplatin 5 uM
  % of surviving colonies: 10.3%
[2]; Library transfected cells, cisplatin 6 uM
  % of surviving colonies: 5.2%
[2]; Library transfected cells, cisplatin 7 uM
  % of surviving colonies: 2.3%
[2]; Library transfected cells, cisplatin 8 uM
  % of surviving colonies: 0%
[2]; vector transfected cells, cisplatin 4 uM, after multiple rounds of selection
  % of surviving colonies: 2.14%
[2]; vector transfected cells, cisplatin 5 uM
  % of surviving colonies: 0.97%
[2]; vector transfected cells, cisplatin 6 uM
  % of surviving colonies: 0.79%
[2]; vector transfected cells, cisplatin 7 uM
  % of surviving colonies: 0%
[2]; vector transfected cells, cisplatin 8 uM
  % of surviving colonies: 0%

## Alanine
HIV; MOI 0.02
  % inhibition of HIV replication: 75.7 ± 21%
HIV; MOI 0.04
  % inhibition of HIV replication: 71.0 ± 23%
HIV; MOI 0.08
  % inhibition of HIV replication: 8.7 ± 24%

## COc1ccc(C[C@H](N)C(=O)N[C@H]2[C@@H](O)[C@H](n3cnc4c(N(C)C)ncnc43)O[C@@H]2CO)cc1 [puromycin]
A549 and HeLa cells
  survival time in the presence of puromycin: 7 to 9 days

B1: TRAIL: Recombinant TRAIL (Alexis Biochemicals), death receptor ligand (protein, UniProt P50591 1-281, looked up)
Tumor necrosis factor ligand …: MAMMEVQGGPSLGQTCVLIVIFTVLLQSLCVAVTYVYFTNELKQMQDKYSKSGIACFLKEDDSYWDPNDEESMNSPCWQVKWQLRQLVRKMILRTSEETISTVQEKQQNISPLVRERGPQRVAAHITGTRGRSNTLSSPNSKNEKALGRKINSWESSRSGHSFLSNLHLRNGELVIHEKGFYYIYSQTYFRFQEEIKENTKNDKQMVQYIYKYTSYPDPILLMKSARNSCWSKDAEYGLYSIYQGGIFELKENDRIFVSVTNEHLIDMDHEASFFGAFLVG
Melanoma cell line G-361
  killing of G-361 cells: < 100%
